Measured values as given in patent US6664268B1, “Crystal modification B of 8-cyano-1-cyclopropyl-7-(1S,6S-2, 8-diazabicyclo[4.3.0]nonan-8-yl)-6-fluoro-1,4-dihydro-4-oxo-3-quinolinecarboxylic acid” (Bayer Aktiengesellschaft, priority 1998, dated 2003).

Experiments:
[1] = Water absorption at 95% relative atmospheric humidity; format: physicochemical; details: relative atmospheric humidity of 95% (saturated solution of Na2HPO4×12 H2O with sediment in water), within one day
Description: At a relative atmospheric humidity of 95% (established using a saturated solution of Na2HPO4×12 H2O with sediment in water), the solid obtained according to this procedure absorbs approximately 17% by weight of water within one day.
At a relative atmospheric humidity of 95% (established using a saturated solution of Na2HPO4×12 H2O with sediment in water), the solid obtained according to this procedure absorbs approximately 1% by weight of water within one day.

[2] = Storage stability of the crystal modification; format: physicochemical
Description: In addition, compared with amorphous CCDC, the modification B tends to absorb less water from the atmosphere. For these reasons, it is highly suitable for preparing tablets or other solid formulations. Owing to its stability, it gives these formulations the desired long-lasting storage stability. Using the crystal modification B, it is therefore possible to prepare, in a defined and targeted manner, stable solid preparations of CCDC.

Row | Structure (SMILES) | water absorbed by the solid [1] | stability of crystal modification on prolonged storage [2]
1 | N#Cc1c(N2C[C@@H]3CCCN[C@@H]3C2)c(F)cc2c(=O)c(C(=O)O)cn(C3CC3)c12 [Comparative Example, 8-cyano-1-cyclopropyl-7-(1 S,6S-2,8-diazabicyclo[4.3.0]nonan-8-yl)-6-fluoro-1,4-dihydro-4-oxo-3-quinolinecarboxylic acid, reference compound] | approximately 17 % by weight | –
2 | N#Cc1c(N2C[C@@H]3CCCN[C@@H]3C2)c(F)cc2c(=O)c(C(=O)O)cn(C3CC3)c12 [Example 1, 8-cyano-1-cyclopropyl-7-(1 S,6S-2,8-diazabicyclo[4.3.0]nonan-8-yl)-6-fluoro-1,4-dihydro-4-oxo-3-quinolinecarboxylic acid] | approximately 1 % by weight | does not change into another crystal modification or the amorphous form
